Data on two compounds can be found in paper PMC5923478 (Viruses, 2018).

Series [1] relates to ZIKV.
Series [2] relates to HCV. Also noted: method as in ref 11 = [11]. As to conditions: Huh 7.5.1 cells, 15 µM, 24 h to 48 h; cited from earlier work.
Series [3] deals with ZIKV. The series can be described thus: microbe, parasite or virus in culture. As to conditions: Zika virus, Vero, 48 h.
The test system of series [4] is TBEV.
Series [5] deals with ZIKV, WNV and TBEV. Put plainly: organism not typed. It counts as cell-based.
Series [6] can be described thus: in vitro. Conditions: pig.
The subject of series [7] is Vero cells. As to conditions: African green monkey; human.
Series [8] can be described thus: in vitro. Conditions: African green monkey.
For series [9], the system named is WNV.
Series [10] concerns Crimean-Congo hemorrhagic fever virus. As to conditions: cited from earlier work.
For series [11], the system named is WNV. The series can be described thus: microbe, parasite or virus in culture. Conditions: West Nile virus, Vero, 48 h.
The test system of series [12] is WNV viral surface E antigen expression. The class given is cell-based, West Nile virus.
The subject of series [13] is ZIKV surface E antigen expression. The class given is cell-based, Zika virus.
For series [14], the system named is TBEV. Put plainly: microbe, parasite or virus in culture. Conditions: Tick-borne encephalitis virus, Vero, 48 h.
Series [15] is described as follows: in vitro.
For series [16], the system named is Chikungunya virus. As to conditions: Vero cells or primary human fibroblasts; cited from earlier work.
Series [17] deals with ZIKV. Also noted: method as in ref 24 = [24]. Conditions: depending on the cultivated cells used; cited from earlier work.

Where two headings read alike, the source gives them in different places. Bounds are passed on as bounds.

As to `CCOC(=O)c1c(CSc2ccccc2)n(C)c2cc(Br)c(O)c(CN(C)C)c12.Cl.O` [arbidol, ethyl-6-bromo-4-[(dimethylamino)methyl]-5-hydroxy-1-methyl-2-[(phenylthio)methyl]-indole-3-carboxylate hydrochloride monohydrate], the half-maximal effective concentration (EC50) was 10.6 ± 0.74 µM in [1]; 12.1 ± 0.77 µM in [3]; 10.6 to 19.2 µM in [5] (Vero, read-out: EC50 values, range over ZIKV, WNV and TBEV); 19.2 ± 0.29 µM in series [9]; 2.8 µg/mL in [10]; 18.8 ± 0.21 µM in series [11]. Moreover, the concentration for a half-maximal effect (EC50) was 18.67 ± 0.15 µM in [14] and < 10 µg/mL in series [16]. In addition, the ZIKV replication result in [1] is “not inhibited”. Moreover, in [1], the ZIKV viral replication entry is “inhibited completely”. Further, the “reduction in ZIKV titer compared to mock-treated cells” value in [1] was “about 10^4 fold”. Further, the “inhibition of HCV replication” value in [2] was “up to 10^3 fold”. The “SI (CC50/EC50)” value in series [4] amounted to 4.81. Further, the “TBEV viral titer reduction compared with non-treated cells” value in series [4] is recorded as 10^3 fold. Also, the “inhibition of TBEV replication” value in [4] is given as “incomplete”. Further, the “antiviral effects in virus infected cells” value in series [5] is listed as “no antiviral effects”. For the same compound, the “viral titer in growth curves” value in series [5] was “rapid reduction of viral titer”. The CC50 was 46.8 ± 1.65 µM in series [6]; 89.72 ± 0.19 µM in series [8]; 18.7 to 89.7 µM in series [15]; 24.8 to 47 µM in series [15] (pig (PS), human (UKF-NB-4, HBCA)). The “cytotoxicity in Vero cells lower than in Huh-7 cells” value in [7] was “about 5 times”. For the same compound, in [9], the “antiviral effects against WNV” value is reported as “little or no antiviral effects”. Besides, in series [12], the “WNV viral surface E antigen expression” value is “dose-dependent inhibition”. Besides, the “ZIKV surface E antigen expression (immunofluorescence staining)” value in series [13] is reported as “dose-dependent inhibition”.
Consider `CC(C)OC(=O)[C@H](C)N[P@](=O)(OC[C@H]1O[C@@H](n2ccc(=O)[nH]c2=O)[C@](C)(F)[C@@H]1O)Oc1ccccc1` [sofosbuvir], for which, in [17], the “activity against ZIKV infection” value is listed as “differentially active”.

In general, EC50 refers to the concentration needed to bring the measured effect to its halfway point.
